Assays:
Assay in all cases: post-emergence herbicidal activity, greenhouse
Format in all cases: in vivo
Sorghum = settings: Table II, 4 WAT
In short: (§1)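 Plants grown from seed or perennial propagules in greenhouse soil pans were sprayed at two to three weeks with compound solution or suspension containing about 0.4% emulsifier, at the stated application rates. Injury relative to untreated controls was scored at approximately two and four weeks after treatment on a post-emergence activity index.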

Hemp Sesbania = settings: Table II, 4 WAT
In short: as §1

Johnsongrass = settings: Table I, 4 WAT
In short: as §1

Crabgrass = settings: Table II, 4 WAT
In short: as §1

Quackgrass = settings: Table I, 4 WAT
In short: as §1

Morningglory = settings: 4 WAT
In short: as §1

Barnyardgrass = settings: 4 WAT
In short: as §1

Smartweed = settings: 4 WAT
In short: as §1

Canada Thistle = settings: Table I, 4 WAT
In short: as §1

Sugar Beet = settings: Table II, 4 WAT
In short: as §1

Wheat = settings: Table II, 4 WAT
In short: as §1

Yellow Nutsedge = settings: Table I, 4 WAT
In short: as §1

Panicum Spp = settings: Table II, 4 WAT
In short: as §1

Velvetleaf = settings: 4 WAT
In short: as §1

Rice = settings: Table II, 4 WAT
In short: as §1

Downy Brome = settings: 4 WAT
In short: as §1

Lambsquarters = settings: 4 WAT
In short: as §1

Cocklebur = settings: 4 WAT
In short: as §1

Soybean = settings: Table II, 4 WAT
In short: as §1

Wild Buckwheat = settings: Table II, 4 WAT
In short: as §1

Structure (SMILES): CC(C)CCSSN(CC#N)CP(=O)(Oc1ccccc1)Oc1ccccc1 [V, Phosphonic acid, [[(cyanomethyl)[(3-methylbutyl)-dithio]amino]methyl]-, diphenyl ester]
- post-emergence herbicidal activity index (Sorghum; 1.12 kg/h): 2 (50-74% control)
- post-emergence herbicidal activity index (Sorghum; 5.6 kg/h): 3 (75-99% control)
- post-emergence herbicidal activity index (Hemp Sesbania; 1.12 kg/h): 0 (0-24% control)
- post-emergence herbicidal activity index (Hemp Sesbania; 5.6 kg/h): 1 (25-49% control)
- post-emergence herbicidal activity index (Johnsongrass; 5.6 kg/h): 1 (25-49% control)
- post-emergence herbicidal activity index (Johnsongrass; 11.2 kg/h): 3 (75-99% control)
- post-emergence herbicidal activity index (Crabgrass; 1.12 kg/h): 1 (25-49% control)
- post-emergence herbicidal activity index (Crabgrass; 5.6 kg/h): 3 (75-99% control)
- post-emergence herbicidal activity index (Quackgrass; 5.6 kg/h): 1 (25-49% control)
- post-emergence herbicidal activity index (Quackgrass; 11.2 kg/h): 2 (50-74% control)
- post-emergence herbicidal activity index (Morningglory; Table I, 5.6 kg/h): 2 (50-74% control)
- post-emergence herbicidal activity index (Morningglory; Table I, 11.2 kg/h): 2 (50-74% control)
- post-emergence herbicidal activity index (Morningglory; Table II, 1.12 kg/h): 1 (25-49% control)
- post-emergence herbicidal activity index (Morningglory; Table II, 5.6 kg/h): 2 (50-74% control)
- post-emergence herbicidal activity index (Barnyardgrass; Table I, 5.6 kg/h): 2 (50-74% control)
- post-emergence herbicidal activity index (Barnyardgrass; Table I, 11.2 kg/h): 3 (75-99% control)
- post-emergence herbicidal activity index (Barnyardgrass; Table II, 1.12 kg/h): 1 (25-49% control)
- post-emergence herbicidal activity index (Barnyardgrass; Table II, 5.6 kg/h): 3 (75-99% control)
- post-emergence herbicidal activity index (Smartweed; Table I, 5.6 kg/h): 1 (25-49% control)
- post-emergence herbicidal activity index (Smartweed; Table I, 11.2 kg/h): 3 (75-99% control)
- post-emergence herbicidal activity index (Smartweed; Table II, 1.12 kg/h): 0 (0-24% control)
- post-emergence herbicidal activity index (Smartweed; Table II, 5.6 kg/h): 1 (25-49% control)
- post-emergence herbicidal activity index (Canada Thistle; 5.6 kg/h): 2 (50-74% control)
- post-emergence herbicidal activity index (Canada Thistle; 11.2 kg/h): 1 (25-49% control)
- post-emergence herbicidal activity index (Sugar Beet; 1.12 kg/h): 1 (25-49% control)
- post-emergence herbicidal activity index (Sugar Beet; 5.6 kg/h): 1 (25-49% control)
- post-emergence herbicidal activity index (Wheat; 1.12 kg/h): 0 (0-24% control)
- post-emergence herbicidal activity index (Wheat; 5.6 kg/h): 1 (25-49% control)
- post-emergence herbicidal activity index (Yellow Nutsedge; 5.6 kg/h): 2 (50-74% control)
- post-emergence herbicidal activity index (Yellow Nutsedge; 11.2 kg/h): 2 (50-74% control)
- post-emergence herbicidal activity index (Panicum Spp; 1.12 kg/h): 0 (0-24% control)
- post-emergence herbicidal activity index (Panicum Spp; 5.6 kg/h): 1 (25-49% control)
- post-emergence herbicidal activity index (Velvetleaf; Table I, 5.6 kg/h): 1 (25-49% control)
- post-emergence herbicidal activity index (Velvetleaf; Table I, 11.2 kg/h): 0 (0-24% control)
- post-emergence herbicidal activity index (Velvetleaf; Table II, 1.12 kg/h): 0 (0-24% control)
- post-emergence herbicidal activity index (Velvetleaf; Table II, 5.6 kg/h): 2 (50-74% control)
- post-emergence herbicidal activity index (Rice; 1.12 kg/h): 0 (0-24% control)
- post-emergence herbicidal activity index (Rice; 5.6 kg/h): 1 (25-49% control)
- post-emergence herbicidal activity index (Downy Brome; Table I, 5.6 kg/h): 2 (50-74% control)
- post-emergence herbicidal activity index (Downy Brome; Table I, 11.2 kg/h): 2 (50-74% control)
- post-emergence herbicidal activity index (Downy Brome; Table II, 1.12 kg/h): 2 (50-74% control)
- post-emergence herbicidal activity index (Downy Brome; Table II, 5.6 kg/h): 2 (50-74% control)
- post-emergence herbicidal activity index (Lambsquarters; Table I, 5.6 kg/h): 4 (100% control)
- post-emergence herbicidal activity index (Lambsquarters; Table I, 11.2 kg/h): 3 (75-99% control)
- post-emergence herbicidal activity index (Lambsquarters; Table II, 1.12 kg/h): 1 (25-49% control)
- post-emergence herbicidal activity index (Lambsquarters; Table II, 5.6 kg/h): 3 (75-99% control)
- post-emergence herbicidal activity index (Cocklebur; Table I, 5.6 kg/h): 2 (50-74% control)
- post-emergence herbicidal activity index (Cocklebur; Table I, 11.2 kg/h): 3 (75-99% control)
- post-emergence herbicidal activity index (Cocklebur; Table II, 1.12 kg/h): 1 (25-49% control)
- post-emergence herbicidal activity index (Cocklebur; Table II, 5.6 kg/h): 3 (75-99% control)
- post-emergence herbicidal activity index (Soybean; 1.12 kg/h): 1 (25-49% control)
- post-emergence herbicidal activity index (Soybean; 5.6 kg/h): 2 (50-74% control)
- post-emergence herbicidal activity index (Wild Buckwheat; 1.12 kg/h): 0 (0-24% control)
- post-emergence herbicidal activity index (Wild Buckwheat; 5.6 kg/h): 1 (25-49% control)
